Data: patent US9167821B2 (priority 2009, dated 2015)

Assays:
[1] = system: Phytophthora infestans; experiment: whole plant or invertebrate; format: in vivo; details: for efficacy: tomato plants, protective spray, 10 ppm active ingredient, evaluation 3 days after inoculation, 0% = control, 100% = no infection; for pest or weed control at 10 ppm: Phytophthora infestans, in Solanum lycopersicum, 72 h, read-out: efficacy
[2] = for logp [b]: pH 2.7; for logp [a]: pH 2.3; for logp [c]: pH 7.8
Description: (§1) The determination is effected in the acidic range at pH 2.3 using 0.1% aqueous phosphoric acid and acetonitrile as eluents; linear gradient from 10% acetonitrile to 95% acetonitrile. • ^[b] The LC-MS determination in the acidic range is effected at pH 2.7 using 0.1% aqueous formic acid and acetonitrile (contains 0.1% formic acid) as eluents; linear gradient from 10% acetonitrile to 95% acetonitrile. • ^[c] The LC-MS determination in the neutral range is effected at pH 7.8 using 0.001 molar aqueous ammonium hydrogencarbonate solution and acetonitrile as eluents; linear gradient from 10% acetonitrile to 95% acetonitrile.
(§2) The calibration is effected with unbranched alkan-2-ones (having 3 to 16 carbon atoms) with known log P values (determination of the log P values using the retention times by linear interpolation between two successive alkanones).

[3] = system: Plasmopara viticola; experiment: Plasmopara test (grapevine)/protective; format: in vivo; details: grapevine plants, protective spray, 10 ppm active ingredient, evaluation 6 days after inoculation, 0% = control, 100% = no infection; for pest or weed control at 10 ppm: Plasmopara viticola, 144 h, read-out: efficacy
Description: Plasmopara Test (Grapevine)/Protective
To prepare an appropriate active ingredient preparation, 1 part by weight of active ingredient is mixed with the stated amounts of solvent and emulsifier, and the concentrate is diluted with water to the desired concentration.
To test for protective efficacy, young plants are sprayed with the active ingredient preparation at the stated application rate. After the spray coating has dried on, the plants are inoculated with an aqueous spore suspension of Plasmopara viticola and then remain in an incubation cabinet at about 20° C. and 100% relative atmospheric humidity for 1 day. The plants are then placed in a greenhouse at approx. 21° C. and approx. 90% air humidity for 4 days. The plants are then moistened and placed in an incubation cabinet for 1 day.
Evaluation follows 6 days after the inoculation.

[4] = system: Peronospora brassicae; experiment: Peronospora test (rapeseed)/seed treatment; format: in vivo; details: 50 g/dt active ingredient, greenhouse, infected leaf area per plant, 0% = control, 100% = no infestation
Description: Peronospora Test (Rapeseed)/Seed Treatment
The test was carried out under greenhouse conditions.
To produce an active ingredient preparation, the active ingredient was dissolved in N-methyl-2-pyrrolidone and the concentrate was diluted with water to the desired concentration. The rapeseeds treated with this solution were sown in 6*6 cm pots which had been filled to a height of 4 cm with a 1:1 mixture of steam-treated soil and sand. Then the plants were cultivated at 10° C.
After 14 days, the plants were inoculated with an aqueous spore suspension of Peronospora brassicae. Subsequently, the plants were placed in a greenhouse at approx. 15° C. and 100% air humidity for 7 days.
The evaluation was effected by assessing the infected leaf area per plant. 0% means an efficiency which corresponds to that of the control, while an efficiency of 100% means that no infestation is observed.

[5] = physchem
Description: as §1, §2

## O=C(Cn1nc(C(F)F)cc1C(F)F)N1CCC(c2nc(C3=NOC(c4c(F)cccc4F)C3)cs2)CC1 (racemic) [I-2]
[1]
  efficacy: 99%
[2]
  logp [b]: 3.14^[b]
[3]
  efficacy: 100%

## CC#CCOc1cccc(C2CC(c3csc(C4CCN(C(=O)Cn5nc(C(F)F)cc5C(F)F)CC4)n3)=NO2)c1 (racemic) [I-15]
[1]
  efficacy: 95%
[2]
  logp [a]: 3.29^[a]
  logp [c]: 3.33^[c];
[3]
  efficacy: 93%

## C#CCOc1ccccc1C1CC(c2csc(C3CCN(C(=O)Cn4nc(C(F)F)cc4C(F)F)CC3)n2)=NO1 (racemic) [I-39]
[1]
  efficacy: 99%
[2]
  logp [a]: 3.28^[a]
  logp [c]: 3.23^[c];
[3]
  efficacy: 99%

## O=C(Cn1nc(C(F)F)cc1C(F)F)N1CCC(F)(c2nc(C3=NOC(c4c(F)cccc4F)C3)cs2)CC1 (racemic) [I-6]
[1]
  efficacy: 94%
[2]
  logp [b]: 3.43^[b];
  logp [c]: 3.34^[c]
[3]
  efficacy: 100%
[4]
  efficiency: 100%

## O=C(Cn1nc(C(F)F)cc1C(F)F)N1CCC(c2nc(C3=NOC(c4ccccc4)C3)cs2)CC1 (racemic) [I-1]
[1]
  efficacy: 95%
[2]
  logp [b]: 3.17^[b];
  logp [c]: 3.11^[c]
[3]
  efficacy: 100%
[4]
  efficiency: 100%

## C#CCOc1cccc(C2CC(c3csc(C4CCN(C(=O)Cn5nc(C(F)F)cc5C(F)F)CC4)n3)=NO2)c1 (racemic) [I-21]
[1]
  efficacy: 98%
[2]
  logp [a]: 3.24^[a]
  logp [c]: 3.16^[c];
[3]
  efficacy: 100%

## CS(=O)(=O)Nc1ccc(C2CC(c3csc(C4CCN(C(=O)Cn5nc(C(F)F)cc5C(F)F)CC4)n3)=NO2)cc1 (racemic) [I-40]
[1]
  efficacy: 95%
[2]
  logp [b]: 2.41^[b]
[3]
  efficacy: 91%

## CC(=O)c1cccc(C2CC(c3csc(C4CCN(C(=O)Cn5nc(C(F)F)cc5C(F)F)CC4)n3)=NO2)c1 (racemic) [I-8]
[1]
  efficacy: 97%
[2]
  logp [b]: 2.78^[b]
[3]
  efficacy: 99%

## Nc1ccccc1C1CC(c2csc(C3CCN(C(=O)Cn4nc(C(F)F)cc4C(F)F)CC3)n2)=NO1 (stereo not shown) [I-41, 1-(4-{4-[5-(2-Aminophenyl)-4,5-dihydro-1,2-oxazol-3-yl]-1,3-thiazol-2-yl}piperidin-1-yl)-2-[3,5-bis(difluoromethyl)-1H-pyrazol-1-yl]ethanone]
[1]
  pest or weed control at 10 ppm: 94%
[3]
  pest or weed control at 10 ppm: 100%
[5]; pH 2.3
  chromatographic logP: 2.7
[5]; pH 7.8, logp [c]
  chromatographic logP: 2.71

## CC(=O)c1ccccc1C1CC(c2csc(C3CCN(C(=O)Cn4nc(C(F)F)cc4C(F)F)CC3)n2)=NO1 (stereo not shown) [I-7, 1-(4-{4-[5-(2-Acetylphenyl)-4,5-dihydro-1,2-oxazol-3-yl]-1,3-thiazol-2-yl}piperidin-1-yl)-2-[3,5-bis(difluoromethyl)-1H-pyrazol-1-yl]ethanone]
[1]
  pest or weed control at 10 ppm: 97%
[3]
  pest or weed control at 10 ppm: 100%
[4]
  efficiency: 100%
[5]; pH 2.7, logp [b]
  chromatographic logP: 3.08

## O=Cc1ccccc1C1CC(c2csc(C3CCN(C(=O)Cn4nc(C(F)F)cc4C(F)F)CC3)n2)=NO1 (stereo not shown) [I-26, 2-{3-[2-(1-{[3,5-Bis(difluoromethyl)-1H-pyrazol-1-yl]acetyl}piperidin-4-yl)-1,3-thiazol-4-yl]-4,5-dihydro-1,2-oxazol-5-yl}benzaldehyde]
[1]
  pest or weed control at 10 ppm: 97%
[3]
  pest or weed control at 10 ppm: 100%
[5]; pH 2.7, logp [b]
  chromatographic logP: 2.98

## O=C(Cn1nc(C(F)F)cc1C(F)F)N1CCC(c2nc(C3=NOC(c4cccc(O)c4)C3)cs2)CC1 (racemic) [I-42]
[1]
  efficacy: 94%
[2]
  logp [a]: 2.43^[a]
  logp [c]: 2.45^[c];
[3]
  efficacy: 97%

## O=C(Cn1nc(C(F)F)cc1C(F)F)N1CCC(c2nc(-c3cc(-c4ccccc4)on3)cs2)CC1 [I-3]
[1]
  efficacy: 100%
[2]
  logp [b]: 3.66^[b]
[3]
  efficacy: 100%

## O=C(Cn1nc(C(F)F)cc1C(F)F)N1CCC(c2nc(C3=NOC(c4ccccc4O)C3)cs2)CC1 (stereo not shown) [I-9, 2-[3,5-Bis(difluoromethyl)-1H-pyrazol-1-yl]-1-(4-{4-[5-(2-hydroxyphenyl)-4,5-dihydro-1,2-oxazol-3-yl]-1,3-thiazol-2-yl}piperidin-1-yl)ethanone]
[1]
  pest or weed control at 10 ppm: 96%
[3]
  pest or weed control at 10 ppm: 99%
[5]; pH 2.3
  chromatographic logP: 2.58
[5]; pH 7.8, logp [c]
  chromatographic logP: 2.6

## O=Cc1cccc(C2CC(c3csc(C4CCN(C(=O)Cn5nc(C(F)F)cc5C(F)F)CC4)n3)=NO2)c1 (racemic) [I-23]
[1]
  efficacy: 97%
[2]
  logp [b]: 2.78^[b]
[3]
  efficacy: 99%

## CCC#CCOc1ccccc1C1CC(c2csc(C3CCN(C(=O)Cn4nc(C(F)F)cc4C(F)F)CC3)n2)=NO1 (racemic) [I-25]
[1]
  efficacy: 95%
[2]
  logp [b]: 3.91^[b]
[3]
  efficacy: 74%

## C#CCOc1ccc(C2CC(c3csc(C4CCN(C(=O)Cn5nc(C(F)F)cc5C(F)F)CC4)n3)=NO2)cc1 (racemic) [I-22]
[1]
  efficacy: 98%
[2]
  logp [a]: 3.14^[a];
  logp [c]: 3.08^[c]
[3]
  efficacy: 97%

## COCCOc1ccccc1C1CC(c2csc(C3CCN(C(=O)Cn4nc(C(F)F)cc4C(F)F)CC3)n2)=NO1 (stereo not shown) [I-19, 2-[3,5-Bis(difluoromethyl)-1H-pyrazol-1-yl]-1-[4-(4-{5-[2-(2-methoxyethoxy)phenyl]-4,5-dihydro-1,2-oxazol-3-yl}-1,3-thiazol-2-yl)piperidin-1-yl]ethanone]
[1]
  pest or weed control at 10 ppm: 96%
[3]
  pest or weed control at 10 ppm: 96%
[5]; pH 2.7, logp [b]
  chromatographic logP: 3.26
[5]; pH 7.8, logp [c]
  chromatographic logP: 3.18
